Read-outs that look alike come from different tables or passages of the source.
Experiments:
DA receptor [1] = assay: DA metabolism (DOPAC, HVA levels) in habituated rats; type: in vivo, rat (male Sprague-Dawley); conditions: for response vs control in vivo at 100 µmol/kg: Rattus norvegicus, sc, 1 h
Method: (§1) Footnotes Table 3. The rats were habituated to the motility meters 60 min
The rats were immediately killed after the activity session, striata
and limbic levels of DOPAC and 5HIAA were measured by means of HPLCEC. *p
In the experiments with habituated rats no NSD was administered and the animals were killed one hour after drug administration. […] The levels were expressed as % of controls (DOPAC and 5-HIAA see Table 3). The in vivo brain microdialysis experiments were performed in conscious rats as described by Waters et al., Eur. J. Pharm., 187, 425-34 (1990).
(§2) Injection volumes were 5 mL/kg.
After the activity session the rats were killed and the brain levels of HVA and DOPAC were measured (data are expressed as means ±SEM).

5-HT1A = target: T1, 5-HT1A (Rattus norvegicus, UniProt P19327); assay: 5-HT1A radioligand binding ([3H]-8-OH-DPAT); parameters: species or system rat (male Sprague-Dawley)
T1 construct: the whole brain with the exception of the brainstem and cerebellum was rapidly removed; from tissue
T1 sequence (P19327 1-422): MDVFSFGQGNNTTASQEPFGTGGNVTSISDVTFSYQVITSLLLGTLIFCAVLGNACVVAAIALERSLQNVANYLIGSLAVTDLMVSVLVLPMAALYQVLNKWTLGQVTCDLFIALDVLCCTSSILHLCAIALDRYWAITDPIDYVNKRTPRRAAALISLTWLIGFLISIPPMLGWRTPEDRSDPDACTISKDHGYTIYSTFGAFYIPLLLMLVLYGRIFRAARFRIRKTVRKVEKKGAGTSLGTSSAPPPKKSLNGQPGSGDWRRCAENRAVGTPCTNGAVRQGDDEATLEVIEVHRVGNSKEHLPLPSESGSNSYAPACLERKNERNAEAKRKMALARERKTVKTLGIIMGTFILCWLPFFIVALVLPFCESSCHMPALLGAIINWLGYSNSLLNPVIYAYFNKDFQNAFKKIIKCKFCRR
Method: ^b Serotonin 5HT1A ([^3 H]-8OH-DPAT, agonist) rat cortex.
5-HT1A radioligand binding. Male Sprague-Dawley rats (160-225 g) were killed by decapitation and the whole brain with the exception of the brainstem and cerebellum was rapidly removed, weighed and chilled in ice-cold 0.9% NaCl. Each brain was homogenized (Ultra-Turrax, 20 s) in 10 mL ice-cold 50 mM Tris buffer (pH 8.0 at 25° C.) containing 120 mM NaCl, 4 mM CaCl2 and 4 mM MgCl2 and centrifuged at 20,000 g's at 4° C. for 10 minutes. Pellets were resuspended in 10 mL fresh buffer and preincubated for 10 minutes in a 37° C. waterbath and then recentrifuged. Final pellets were homogenized in 100 volumes (w/v) of Tris buffer (as described above) containing 10 μM pargyline. The incubation tubes were kept on ice in triplicates and received 100 μL drug solution in water (or water for total binding) and 1000 μL membrane suspension (corresponds to 10 mg original tissue). The binding experiment was initiated by addition of 100 μL of (3H)-8-OH-DPAT (specific activity 143-158 Ci/mmol) in ascorbic acid (the final incubation concentration was 1 nM (3H)-8-OH-DPAT in 0.1% ascorbic acid). After incubation for 15 minutes at 37° C. the reaction was terminated by separation of the free radioligand from bound by rapid vacuum filtration using a cell harvester equipment (O. M. Teknik, Denmark). The tubes were rinsed with 4 mL and the filters (Whatman GF/F 25 mm) were washed twice with 4 mL ice-cold 0.9% NaCl.
The radioactivity of the filters was measured in a liquid scintillation counter (efficiency 41%) in 5 mL Picofluor®. Specific binding (70-75% of total binding) was defined as the radioactivity displaced by 10 μM 5-HT. IC50 values were calculated by semi-log plot and linear regression analysis.

habituated rats = assay: Locomotor activity and behavior in habituated rats; type: in vivo, rat (male Sprague-Dawley); conditions: 100 μmol/kg sc, habituated rats; for response vs control in vivo at 100 µmol/kg: Rattus norvegicus, 1 h, read-out: Motor Activity
Method: as §1
prior to the activity session.
as §2
Locomotor activity was measured in rats which were habituated 60 minutes to the activity meters before drug injection. The activity was measured for the subsequent 60 minutes and expressed as % of controls (means ±SEM, n=4).

D2 receptors = target: T2, D2 receptors (Rattus norvegicus, UniProt P61169); assay: D2 antagonist binding ([3H]-spiperone), rat striatum
T2 construct: Preparation of rat striatal membranes for (3H)-spiperone; from tissue; host or cells: rat striatum (striatal membranes)
T2 sequence (P61169 whole entry): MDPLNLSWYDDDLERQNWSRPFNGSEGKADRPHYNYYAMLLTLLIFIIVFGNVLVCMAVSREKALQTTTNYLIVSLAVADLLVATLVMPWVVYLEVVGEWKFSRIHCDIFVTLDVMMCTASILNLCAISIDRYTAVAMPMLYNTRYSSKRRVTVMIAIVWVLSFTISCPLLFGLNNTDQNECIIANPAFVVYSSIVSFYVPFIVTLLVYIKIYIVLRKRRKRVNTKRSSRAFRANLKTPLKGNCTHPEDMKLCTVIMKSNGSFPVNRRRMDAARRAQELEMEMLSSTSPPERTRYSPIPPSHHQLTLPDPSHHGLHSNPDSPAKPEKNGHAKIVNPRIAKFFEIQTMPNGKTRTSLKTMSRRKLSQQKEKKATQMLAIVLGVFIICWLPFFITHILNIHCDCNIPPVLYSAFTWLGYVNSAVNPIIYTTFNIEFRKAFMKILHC
Method: D2 antagonist binding. Preparation of rat striatal membranes for (3H)-spiperone (specific activity 21-24 Ci/mmol) binding was carried out in a similar manner as described for D1-binding, Hyttel et al., J. Neural. Transm., 68, 171 (1987).
IC50 values were calculated by semi-log plot and linear regression analysis.

non-pretreated rats = assay: Locomotor activity and gross behavior in non-habituated (non-pretreated) rats; conditions: 100 sc, non-pretreated rats
Source text: Immediately after drug administration, the rats were placed in the test cages (one rat/cage) and put into the motility meters. […] Observations of gross behavior were made throughout the activity sessions through semi-transparent mirrors.
(§3) Animals used in the biochemical and motor activity experiments were male rats of the Sprague-Dawley strain (ALAB, Sollentuna, Sweden), weighing 200-300 g. The rats were kept 5 per cage with free access to water and food (except for the starved animals for the experiments with per oral administration, who were only allowed water the last 18 hours before testing), at least one week from arrival until used in the experiments.
(§4) All substances to be tested were dissolved in saline immediately before use, occasionally with the addition of a few drops of glacial acetic acid and/or moderate heating in order to obtain complete dissolution. Injection volumes were 5 mL/kg.
Analysis of variance (ANOVA) followed by Fischer's test was used for the statistical calculations.
In vivo behavioral data was obtained with rats injected with drug and 5 minutes later put into the motility chambers for the first time. The motor activity was measured for the subsequent 30 minutes (accumulated counts/30 minutes) and expressed as % of saline treated controls.

5-HT receptor = assay: 5-HTP accumulation (5-HT synthesis rate) in non-pretreated rats after NSD 1015; type: in vivo, rat (male Sprague-Dawley); conditions: 100 sc
Method: observations are commented to the right. After the session the rats were
accumulation in the NErich cortical regions and 5HTP in the limbic
as §2

DA receptor [2] = assay: DOPA accumulation (DA synthesis rate) in non-pretreated rats after NSD 1015; conditions: 100 sc
Method: injected with NSD 1015 (100 mg/kg, i.p.) and then killed 30 min later.
In-vivo determination of rat brain monoamine metabolites and tyrosine and tryptophan hydroxylation (biochemically monitored DA and 5-HT receptor agonist or antagonist activity).
The compounds under evaluation were tested biochemically for central DA and 5-HT receptor (pre- and/or postsynaptic) stimulating and/or blocking activity. The concept of this biochemical screening method is that a DA or 5-HT receptor agonist will stimulate the receptor and through regulatory negative feed-back systems induce a decline in tyrosine or tryptophan hydroxylating activity, respectively, and a subsequent reduction in the synthesis rate of DA and 5-HT in the presynaptic neuron. […] The biochemical experiments and the determinations of Dopa and 5-HTP by means of HPLC with electrochemical detection were performed. The antagonistic effects were seen as increases in the synthesis rate (n=4), as a result of the positive feed-back upregulation of synthesis. The effects on Dopa and 5-HTP accumulation are expressed as % of controls, which were: DOPA limbic system=447±23 ng/g and DOPA striatum=1045±47ng/g, 5-HTP limbic region 241±2 ng/g (Table 2).
as §3, §4
Analysis of variance (ANOVA) followed by Fischer's test was used for the statistical calculations. P values less than 0.05 were regarded statistically significant.
DOPA accumulation (DA synthesis rate) in non-pretreated rats (Table 2). After the locomotor activity session (see Table 2, above) the rats were injected with the decarboxylase inhibitor NSD 1015 (100 mg/kg, sc) and killed 30 minutes later. The DOPA accumulation in the DA -rich limbic and striatal and the NE-rich cortical (mainly hemispheres) brain areas were expressed as % of saline treated controls.
DOPA accumulation, time course after s.c. and p.o. administration (Table 2). […] NSD 1015 (100 mg/kg, sc) was injected 30 minutes before death. The data are expressed as % of saline treated controls.

[3] = [3H]-8-OH-DPAT, rat cortex, read-out: in vitro binding IC50, 5HT1A
[4] = [3H]-spiperone, rat striatum, read-out: in vitro binding IC50, D2 -spip
[5] = 100 μmol/kg sc, habituated rats

CCCN1CCCC(c2cccc(C#N)c2)C1 (racemic) [(+)-S-34]
response vs control in vivo at 100 µmol/kg (DA receptor [1]; read-out: DOPAC limbic): 207 ± 6% | response vs control in vivo at 100 µmol/kg (DA receptor [1]; read-out: DOPAC striatum): 291 ± 16%

CCCN1CCCC(c2ccccc2OS(=O)(=O)C(F)(F)F)C1 (racemic) [Racemic-19, 3-((2-(Trifluoromethyl)sulfonyl)oxyphenyl-N-n-propyl)piperidine]
IC50 (5-HT1A; [3]): 1.4 µM | Behavioral observations (habituated rats): No activation | response vs control in vivo at 100 µmol/kg (habituated rats; 60 min): 101 ± 14%

CCCN1CCCC(c2ccc(OS(=O)(=O)C(F)(F)F)cc2)C1 (racemic) [Racemic-20, 3-((4-(Trifluoromethyl)sulfonyl)oxyphenyl-N-n-propyl)piperidine]
IC50 (5-HT1A; [3]): 14 µM | IC50 (D2 receptors; [4]): 71 µM

CCCN1CCC(c2cccc(OS(=O)(=O)C(F)(F)F)c2)C1 (racemic) [Racemic-21, 3-((3-(Trifluoromethyl)sulfonyl)oxyphenyl-N-n-propyl)pyrrolidine]
IC50 (5-HT1A; [3]): 3.2 µM | IC50 (D2 receptors; [4]): 4 µM | Behavioral observations (habituated rats): No activation | response vs control in vivo at 100 µmol/kg (habituated rats; 60 min): 93 ± 18%

C=Cc1cccc([C@@H]2CCCN(CCC)C2)c1 [(-)-R-41]
Gross Behavioral Observations (non-pretreated rats): No change | Motor Act. (non-pretreated rats; 30 min): 125 ± 13 % of saline controls | 5-HTP acc Limbic Region (5-HT receptor): 65 ± 2 % of saline controls | DOPA acc Cortex (DA receptor [2]): 121 ± 29 % of saline controls | DOPA acc Stratium (DA receptor [2]): 171 ± 15 % of saline controls

O=S(=O)(Oc1cccc([C@@H]2CCCN(CCc3ccccc3)C2)c1)C(F)(F)F [Compound S-18]
IC50 (5-HT1A; [3]): 0.23 µM | IC50 (D2 receptors): 0.24 µM

CCCN1CCC[C@@H](c2cccc(C(=O)OC)c2)C1 [Compound S-25, S-3-(3-(Methoxycarbonyl)phenyl-N-n-propyl)piperidine]
IC50 (5-HT1A; [3]): 2 µM | IC50 (D2 receptors; [4]): 16 µM

N#Cc1cccc([C@@H]2CCCNC2)c1 [Compound S-31, S-3-(3-Cyanophenyl)piperidine]
IC50 (5-HT1A): 10 µM | IC50 (D2 receptors; [4]): 16 µM | DOPAC limbic (DA receptor [1]; [5]): 153 ± 1% | DOPAC striatum (DA receptor [1]; [5]): 167 ± 8 % of saline treated controls | Behavioral observations (habituated rats): Activation | Motor Activity (habituated rats; 60 min): 431 ± 80 % of saline treated controls

CC(C)N1CCC[C@@H](c2cccc(C#N)c2)C1 [Compound S-35, S-3-(3-Cyanophenyl-N-iso-propyl)piperidine]
IC50 (5-HT1A; [3]): 16 µM | IC50 (D2 receptors; read-out: in vitro binding IC50, D2 -spip, [3H]-spiperone, rat striatum): 4.3 µM | response vs control in vivo at 100 µmol/kg (DA receptor [1]; read-out: DOPAC striatum): 251 ± 18% | Behavioral observations (habituated rats): Activation
